According to ChEMBL document CHEMBL3861984, “Synthesis and evaluation of 2,5 and 2,6 pyridine-based CXCR4 inhibitors” (Bioorg Med Chem, 2016):
The source made the active and inactive calls. No cut-off for these calls is given here.

Tests used:
[1] = molecular target: T1, C-X-C chemokine receptor type 4 (Homo sapiens, UniProt P61073); experiment: Displacement of biotinylated-TN14003 from CXCR4 in human MDA-MB-231 cells assessed as reduction in fluorescence preincubated for 10 mins followed by biotinylated-TN14003 addition measured after 30 mins by streptavidin-rhodamine staining based microscopic analysis; assay type: cell-based
T1 sequence (P61073 whole entry): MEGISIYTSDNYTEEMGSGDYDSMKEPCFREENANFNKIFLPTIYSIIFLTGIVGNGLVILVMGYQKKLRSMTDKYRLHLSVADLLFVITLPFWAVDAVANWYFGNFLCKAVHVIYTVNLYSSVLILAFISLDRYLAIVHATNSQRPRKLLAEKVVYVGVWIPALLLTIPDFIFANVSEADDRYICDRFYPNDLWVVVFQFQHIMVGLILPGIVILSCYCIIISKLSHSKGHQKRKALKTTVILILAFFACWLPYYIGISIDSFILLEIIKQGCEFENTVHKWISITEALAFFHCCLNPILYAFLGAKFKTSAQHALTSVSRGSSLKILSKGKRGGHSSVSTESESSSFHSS

[2] = molecular target: T1, C-X-C chemokine receptor type 4; experiment: Inhibition of CXCR4/CXCL12 interaction-mediated chemotaxis in human MDA-MB-231 cells assessed as inhibition of cell invasion at 100 nM after 22 hrs by hematoxylin/eosin dye-based matrigel assay relative to control
Mus musculus [3] = experiment: Toxicity in carrageenan-induced paw edema C57BL/6J mouse model assessed as mortality at 10 mg/kg administered 30 mins after carrageenan challenge and then once daily following initial dose measured 74 hrs post inflammation induction and 2 hrs post last dose; assay type: organism-based; details: in vivo
Mus musculus [4] = experiment: Anti-inflammatory activity in C57BL/6J mouse assessed as suppression of carrageenan-induced paw edema at 10 mg/kg administered 30 mins after carrageenan challenge and then once daily following initial dose measured 74 hrs post inflammation induction and 2 hrs post last dose relative to control; assay type: functional
Mus musculus [5] = experiment: Antiinflammatory activity in C57BL/6J mouse paw assessed as reduction in carrageenan-induced paw edema volume at 10 mg/kg administered 30 mins after carrageenan challenge and then once daily following initial dose measured 74 hrs post inflammation induction and 2 hrs post last dose by hematoxylin and eosin-staining based assay; assay type: functional, organism-based

| EC [1] [nM] | Compound | inhibition [2] [%] | Activity (Mus musculus [3]) | inhibition in vivo at 10 mg/kg (Mus musculus [4]) [%] | IC50 [1] [nM] | Activity (Mus musculus [5]) |
| --- | --- | --- | --- | --- | --- | --- |
| 100 | Fc1ccc(NCc2cccc(CNc3ccc(F)cc3)n2)cc1 | 5 |  |  |  |  |
| 1000 | Fc1ccccc1NCc1cccc(CNc2ccccc2F)n1 |  |  |  |  |  |
| > 1000 | Clc1ccccc1NCc1cccc(CNc2ccccc2Cl)n1 |  |  |  |  |  |
| > 1000 | CSc1ccc(NCc2cccc(CNc3ccc(SC)cc3)n2)cc1 |  |  |  |  |  |
| 1000 | COc1ccccc1NCc1cccc(CNc2ccccc2OC)n1 | 0 |  |  |  |  |
| 1000 | CCc1cccc(NCc2cccc(CNc3cccc(CC)c3)n2)c1 |  |  |  |  |  |
| 100 | COc1ccc(NCc2cccc(CNc3ccc(OC)cc3)n2)cc1 | 5 |  |  |  |  |
| 100 | Clc1cccc(NCc2cccc(CNc3cccc(Cl)c3)n2)c1 | 34 |  |  |  |  |
| > 1000 | Cc1ccccc1NCc1cccc(CNc2ccccc2C)n1 |  |  |  |  |  |
| 100 | COc1ccccc1NCc1ccc(CNc2ccccc2OC)nc1 | < 5 |  |  |  |  |
| > 1000 | FC(F)(F)c1ccccc1NCc1cccc(CNc2ccccc2C(F)(F)F)n1 |  |  |  |  |  |
| 100 | c1ccc(NCc2cccc(CNc3ccccc3)n2)cc1 | < 1 |  |  |  |  |
| 1000 | Cc1ccc(NCc2cccc(CNc3ccc(C)cc3)n2)cc1 |  |  |  |  |  |

The remaining lines, values behind:

| Compound | EC [1] [nM] | inhibition [2] [%] | Activity (Mus musculus [3]) | inhibition in vivo at 10 mg/kg (Mus musculus [4]) [%] | IC50 [1] [nM] | Activity (Mus musculus [5]) |
| --- | --- | --- | --- | --- | --- | --- |
| COc1ccc(CNc2ccc(NCc3ccc(OC)cc3)nc2)cc1 | 1000 |  |  |  |  |  |
| O=[N+]([O-])c1ccc(NCc2cccc(CNc3ccc([N+](=O)[O-])cc3)n2)cc1 | > 1000 |  |  |  |  |  |
| COc1cccc(NCc2cccc(CNc3cccc(OC)c3)n2)c1 | 100 | 37 | Non-Toxic | 20.1 |  |  |
| Cc1cccc(NCc2cccc(CNc3cccc(C)c3)n2)c1 | 100 | 60 | Non-Toxic | 20.2 |  |  |
| Clc1ccc(NCc2cccc(CNc3ccc(Cl)cc3)n2)cc1 | 100 | 21 |  |  |  |  |
| CCc1ccccc1NCc1cccc(CNc2ccccc2CC)n1 | 1 | 59 | Non-Toxic | 18.1 |  |  |
| Fc1ccc(CNc2ccc(NCc3ccc(F)cc3)nc2)cc1 | > 1000 |  |  |  |  |  |
| Clc1cccc(CNc2ccc(NCc3cccc(Cl)c3)nc2)c1 | 1000 |  |  |  |  |  |
| O=[N+]([O-])c1cccc(NCc2cccc(CNc3cccc([N+](=O)[O-])c3)n2)c1 | > 1000 |  |  |  |  |  |
| CCOc1ccc(CNc2ccc(NCc3ccc(OCC)cc3)nc2)cc1 | 100 | 60 | Non-Toxic |  |  |  |
| c1cc(CN2CCOCC2)nc(CN2CCOCC2)c1 | 10 | 63 | Non-Toxic | 39.1 | 35.7 |  |
| Cc1cccc(NCc2ccc(CNc3cccc(C)c3)nc2)c1 | 1 | 58 | Non-Toxic |  |  |  |
| CCc1ccc(NCc2cccc(CNc3ccc(CC)cc3)n2)cc1 | 1 | 64 | Non-Toxic | 42 | 19.6 |  |
| Fc1cccc(NCc2cccc(CNc3cccc(F)c3)n2)c1 | 10 | 50 | Non-Toxic | 20.3 |  | Active |
| FC(F)(F)c1ccc(NCc2cccc(CNc3ccc(C(F)(F)F)cc3)n2)cc1 | 1 | 52 | Non-Toxic | 20.3 |  |  |
| FC(F)(F)c1cccc(NCc2cccc(CNc3cccc(C(F)(F)F)c3)n2)c1 | 1000 | 15 |  |  |  |  |
| Fc1cccc(NCc2ccc(CNc3cccc(F)c3)nc2)c1 | 1000 |  |  |  |  |  |
